Assay results reported in PMC10102062, “Effects of DPTQ, a novel positive allosteric modulator of the dopamine D1 receptor, on spontaneous eye blink rate and spatial working memory in the nonhuman primate” (Psychopharmacology, 2023).

Assays:
dog D1 receptor = assay: cAMP assay: potentiation of EC20 dopamine in transiently transfected HEK293 cells; assay type: cell-based; settings: dog D1, HEK293 transient, n = 4
Description: (§1) The human, rhesus monkey, dog, or mouse D1 receptor was cloned into the Jump-In vector system (Life Technologies Corp, CA) and transiently transfected into HEK293 cells. Increases in cAMP by DPTQ (free base, Eli Lilly) were measured in the presence of an EC20 concentration of dopamine. The EC50 values for each species along with % max stimulation (where dopamine max stimulation equals 100%) are presented in Table 1. These in vitro studies were performed at Eli Lilly and Company, Indianapolis, in USA. For further details on the measurement of effects on cAMP accumulation in these transiently transfected cells, see Hao et al. ([2019]).

human D1 receptor = target: T1, human D1 receptor (Homo sapiens, UniProt P21728); assay: as above; assay type: cell-based; settings: human D1, HEK293 transient, n = 4
T1 construct: expressed in transfected cells; host or cells: HEK293 (transient, Jump-In vector)
T1 sequence (P21728 whole entry): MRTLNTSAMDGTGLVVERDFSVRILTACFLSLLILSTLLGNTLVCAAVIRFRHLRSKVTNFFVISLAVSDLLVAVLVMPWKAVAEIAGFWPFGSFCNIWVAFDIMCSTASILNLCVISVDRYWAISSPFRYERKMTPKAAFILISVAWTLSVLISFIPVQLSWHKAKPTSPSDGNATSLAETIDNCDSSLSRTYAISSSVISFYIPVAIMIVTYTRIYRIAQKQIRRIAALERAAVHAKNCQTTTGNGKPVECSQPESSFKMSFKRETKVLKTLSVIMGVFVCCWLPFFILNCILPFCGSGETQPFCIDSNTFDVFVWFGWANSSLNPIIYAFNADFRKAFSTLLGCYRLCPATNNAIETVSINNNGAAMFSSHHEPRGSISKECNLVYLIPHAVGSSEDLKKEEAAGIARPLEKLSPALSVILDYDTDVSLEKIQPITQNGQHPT
Description: as §1

## C[C@H]1c2cccc(CC(C)(C)O)c2C[C@H](CO)N1C(=O)Cc1c(Cl)cccc1Cl [DPTQ]
Dog D1 receptor
  EC50: 21.5 nM
  Max stimulation (% of max DA): 88 % of max DA
Human D1 receptor
  EC50: 22.9 nM
  Max stimulation (% of max DA): 77 % of max DA
